# Experimental data taken from the RepoRT retention time repository (doi:10.1016/j.foodchem.2021.129757).
# Legend:
# Conditions in all cases: stereoisomer not certain
# [1] = RP, Agilent ZORBAX Eclipse XDB-C18, 100 × 2.1 mm, 1.8 µm, 50 °C, 0.4 mL/min, estimated dead time 0.55 min; A: water + 0.1% formic acid, pH 3; B: methanol + 0.1% formic acid, pH 3; gradient (min/%B) 0/2 10/100 14.5/100 14.51/2 16.5/2
# [2] = RP, Agilent ZORBAX RRHD Eclipse Plus C18, 50 × 2.1 mm, 1.8 µm, 30 °C, 0.4 mL/min, estimated dead time 0.28 min; A: water + 0.1% formic acid, pH 3; B: acetonitrile + 0.1% formic acid, pH 3; gradient (min/%B) 0/1 5/10 8/25 9.1/99 10/99 12/99
# [3] = Other, Phenomenex Kinetex PFP, 100 × 4.6 mm, 2.6 µm, 35 °C, 1.5 mL/min, estimated dead time 0.71 min; A: water + 0.1% trifluoroacetic acid, pH 2; B: acetonitrile + 0.1% trifluoroacetic acid, pH 2; gradient (min/%B) 0/1 7/7.5 14/7.6 17/10 18.5/12 20/12.5 24/30 25/90 25.1/1 32/1
# [4] = RP, Agilent ZORBAX RRHD Eclipse Plus C18, 50 × 2.1 mm, 1.8 µm, 30 °C, 0.4 mL/min, estimated dead time 0.28 min; A: water + 0.1% formic acid, pH 3; B: acetonitrile + 0.1% formic acid, pH 3; gradient (min/%B) 0/1 5/10 8/25 9.1/99 10/99 12/1
# [5] = RP, Waters Atlantis T3, 100 × 2.1 mm, 3 µm, 40 °C, 0.3 mL/min, estimated dead time 0.73 min; A: water + 0.1% trifluoroacetic acid, pH 2; B: acetonitrile + 0.1% trifluoroacetic acid, pH 2; gradient (min/%B) 0/10 1/10 6/40 7/50 8/50 14/70 16/80 20/10 25/10
# [6] = RP, Agilent InfinityLab Poroshell 120 EC-C18, 100 × 3 mm, 2.7 µm, 25 °C, 0.4 mL/min, estimated dead time 1.1 min; A: water + 0.1% formic acid, pH 3; B: acetonitrile + 0.1% formic acid, pH 3; gradient (min/%B) 0/5 10/25 20/40 24/90 25/90 26/5 30/5
# [7] = Other, Phenomenex Kinetex PFP, 100 × 4.6 mm, 5 µm, 45 °C, 0.6 mL/min, estimated dead time 1.8 min; A: water + 0.1% trifluoroacetic acid, pH 2; B: methanol; gradient (min/%B) 0/40 20/72 21/40
# [8] = RP, Phenomenex Synergi Hydro-RP, 250 × 2 mm, 4 µm, 25 °C, 0.2 mL/min, estimated dead time 2.5 min; A: water + 0.1% formic acid, pH 3; B: acetonitrile + 0.1% formic acid, pH 3; gradient (min/%B) 0/0.5 7/0.5 12/12.5 25/16.3 47/35 48/65 50/65 50.1/0.5
# [9] = RP, 150 × 2.1 mm, 2.6 µm, 40 °C, 0.35 mL/min, estimated dead time 0.94 min; A: water + 0.1% formic acid, pH 3; B: acetonitrile + 0.1% formic acid, pH 3; gradient (min/%B) 0/0 1/0 12.5/100 14/100 14.2/0 15/0
# [10] = RP, 150 × 2.1 mm, 2.6 µm, 40 °C, 0.35 mL/min, estimated dead time 0.94 min; A: water + 0.1% formic acid, pH 3; B: acetonitrile + 0.1% formic acid, pH 3; gradient (min/%B) 0/0 1/5 7/45 8.5/80 10.5/80 11/5 12/5
# [11] = RP, Waters ACQUITY UPLC HSS T3, 100 × 2.1 mm, 50 °C; A: water + 0.1% formic acid, pH 3; B: 30% methanol + 70% acetonitrile + 0.1% formic acid, pH 3; gradient (min/%B) 0/5 1/8 2/15 3/40 4/70 4.5/100 5/100 6.4/100 6.6/5 6.8/5 7/5
# [12] = RP, Phenomenex Kinetex EVO C18, 100 × 2.1 mm, 2.6 µm, 40 °C, 0.4 mL/min, estimated dead time 0.55 min; A: water + 0.2% formic acid; B: acetonitrile + 0.2% formic acid; gradient (min/%B) 0/5 0.5/5 7/95 8/95 8.5/5 12/5
# [13] = RP, Waters ACQUITY UPLC BEH C18, 100 × 2.1 mm, 1.7 µm, 65 °C, 0.4 mL/min, estimated dead time 0.55 min; A: water + 0.1% formic acid, pH 3; B: 80% acetonitrile + 20% acetone + 0.1% formic acid, pH 3; gradient (min/%B) 0/0 5/100 5.5/0 6/0
# [14] = RP, Merck LiChrospher RP-18, 250 × 4 mm, 5 µm, 35 °C, 0.3 mL/min, estimated dead time 6.7 min; A: water + 0.5% formic acid; B: acetonitrile + 0.5% formic acid; gradient (min/%B) 0/5 10/5 30/15 45/20 65/20 95/54 110/63 115/5 135/5
# [15] = RP, Waters ACQUITY UPLC BEH Shield RP18, 100 × 2.1 mm, 1.7 µm, 30 °C, 0.6 mL/min, estimated dead time 0.37 min; A: water + 0.1% formic acid, pH 3; B: acetonitrile + 0.1% formic acid, pH 3; gradient (min/%B) 0/0 2/0 7/10 22/95 22.1/0 26/0
# [16] = RP, Waters ACQUITY UPLC BEH Shield RP18, 150 × 2.1 mm, 1.7 µm, 40 °C, 0.4 mL/min, estimated dead time 0.83 min; A: water + 0.1% formic acid, pH 3; B: acetonitrile + 0.1% formic acid, pH 3; gradient (min/%B) 0/0 30/50 31/100 37/100 37.1/0
# [17] = RP, Waters ACQUITY UPLC HSS T3, 100 × 2.1 mm, 1.8 µm, 30 °C, 0.4 mL/min, estimated dead time 0.55 min; A: water + 0.1% formic acid, pH 3; B: acetonitrile + 0.1% formic acid, pH 3; gradient (min/%B) 0/0 2/0 15/100 22/100 22.1/0 26/0
# [18] = RP, 50 × 0.5 mm, 2.7 µm, 35 °C, 0.01 mL/min, estimated dead time 0.62 min; A: water + 0.1% formic acid, pH 3; B: acetonitrile + 0.1% formic acid, pH 3; gradient (min/%B) 0/5 12/95 14/95 16/5
# [19] = RP, Phenomenex Luna C18, 150 × 4.6 mm, 3 µm, 25 °C, 0.5 mL/min, estimated dead time 3.2 min; A: water + 0.1% formic acid, pH 3; B: acetonitrile + 0.1% formic acid, pH 3; gradient (min/%B) 0/0 30/30 35/40 50/80 52/80 60/0 65/0
# [20] = RP, Phenomenex Synergi Hydro-RP, 150 × 2 mm, 4 µm, 30 °C, 0.5 mL/min, estimated dead time 0.6 min; A: water + 0.1% formic acid, pH 3; B: acetonitrile + 0.1% formic acid, pH 3; gradient (min/%B) 0/5 1/5 35/45 40/100 45/100
# [21] = RP, Phenomenex Luna Omega Polar C18, 100 × 2.1 mm, 1.6 µm, 40 °C, 0.5 mL/min, estimated dead time 0.44 min; A: water + 0.1% formic acid + 10 mM ammonium formate; B: acetonitrile; gradient (min/%B) 0/5 8/20 10/100 12/100 12.1/5 14/5
# [22] = RP, Merck Supelco SUPELCOSIL LC-C18, 250 × 4.6 mm, 5 µm, 40 °C, 1 mL/min, estimated dead time 2.6 min; A: water + 0.1% trifluoroacetic acid, pH 2; B: acetonitrile + 0.1% trifluoroacetic acid, pH 2; gradient (min/%B) 0/5 45/35 47/75 49/35 50/5
# [23] = RP, Phenomenex Luna Omega Polar C18, 100 × 2.1 mm, 1.6 µm, 40 °C, 0.5 mL/min, estimated dead time 0.44 min; A: water + 0.5% formic acid; B: acetonitrile + 0.5% formic acid; gradient (min/%B) 0/5 3/50 3.1/100 5/100 5.1/5 7/5
Structure (SMILES),LC retention time [1] [min],LC retention time [2] [min],LC retention time [3] [min],LC retention time [4] [min],LC retention time [5] [min],LC retention time [6] [min],LC retention time [8] [min],LC retention time [9] [min],LC retention time [10] [min],LC retention time [14] [min],LC retention time [16] [min],LC retention time [17] [min],also measured
"O=C(O)c1cccc(O)c1O [2,3-Dihydroxybenzoic acid]",3.5,3.99,9.73,5.18,4.79,–,–,–,–,–,–,–,–
"O=C(O)c1ccc(O)cc1O [2,4-Dihydroxybenzoic acid]",–,3.99,10.9,5.18,5.01,6.36,–,–,–,–,–,–,–
"O=C(O)Cc1ccc(O)c(O)c1 [3,4-Dihydroxyphenylacetic acid]",2.55,1.47,15.3,3.6,–,–,17,7.07,7.28,–,–,–,LC retention time [7]: 3.74 min
O=Cc1ccc(O)cc1 [4-Hydroxybenzaldehyde],3.42,4.4,9.81,5.23,–,–,–,–,–,–,–,–,LC retention time [11]: 3.28 min; LC retention time [12]: 3.43 min; LC retention time [13]: 1.92 min
"O=c1ccc2ccc(O)c(O)c2o1 [7,8-Dihydroxycoumarin]",–,–,12,6.14,–,–,–,4.84,4.64,–,–,–,–
O=C(O)c1ccccc1 [Benzoic acid],5.17,7.28,15.4,7.44,–,–,35.5,–,–,71.8,–,–,LC retention time [7]: 7.84 min
COc1cc(CC(=O)O)ccc1O [Homovanillic acid],3.69,2.83,18.8,5.94,–,6.83,–,–,–,–,10.3,8.67,LC retention time [15]: 16 min; LC retention time [18]: 3.03 min; LC retention time [19]: 16.4 min; LC retention time [20]: 10.2 min; LC retention time [21]: 4.17 min
O=C(CCc1ccc(O)cc1)c1c(O)cc(O)cc1OC1OC(CO)C(O)C(O)C1O (stereo unspecified) [Phloridzin],–,–,24.6,–,8.22,–,39.6,–,–,81.1,14.2,9.96,LC retention time [22]: 30.8 min

# The next lines start with results.
LC retention time [1] [min],LC retention time [2] [min],LC retention time [3] [min],LC retention time [4] [min],LC retention time [5] [min],LC retention time [6] [min],LC retention time [8] [min],LC retention time [9] [min],LC retention time [10] [min],LC retention time [14] [min],LC retention time [16] [min],LC retention time [17] [min],Structure (SMILES),also measured
5.25,8.16,18.9,8.13,–,–,37.4,–,–,81.6,12.8,10.5,O=C(O)c1ccccc1O [Salicylic acid],–
–,–,20.4,–,–,–,–,5.86,5.8,–,–,–,COc1cc2ccc(=O)oc2cc1O [Scopoletin],–
4.97,7.99,22.3,7.6,–,9.78,33,2.81,2.79,–,11.1,9.44,COc1cc(C=CC(=O)O)cc(OC)c1O [Sinapic acid],LC retention time [22]: 23.3 min; LC retention time [15]: 12.5 min; LC retention time [18]: 4.25 min; LC retention time [19]: 25.1 min; LC retention time [20]: 15.2 min; LC retention time [21]: 7.22 min; LC retention time [23]: 2.53 min; LC retention time [13]: 2.1 min
3.61,1.83,9.34,4.25,10,6.3,22.1,3.6,3.36,44.7,6.96,8.52,COc1cc(C(=O)O)ccc1O [Vanillic acid],LC retention time [22]: 13.7 min; LC retention time [11]: 3.2 min; LC retention time [15]: 9.67 min; LC retention time [18]: 2.97 min; LC retention time [19]: 15.7 min; LC retention time [21]: 4.01 min; LC retention time [23]: 2.07 min; LC retention time [13]: 1.8 min
–,–,20.6,–,–,–,39.1,–,–,–,–,–,COc1ccc(C(=O)O)cc1 [p-anisic acid],–
